Test system: SYO-1 complex spheroid growth, percent test/control
Assay: Anticancer human tumor SYO-1 cell line growth inhibition [Asc];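 note: compound exposure lasted 7 days after spheroids grew 3 days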;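 for viability, T/C: 100% = DMSO vehicle control viability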
Settings: for IC50: curve of first compound; for viability, T/C: stronger effect = lower value
Outline: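 Complex solid-tumor spheroids incorporating human endothelial and mesenchymal stem cells received single agents or combinations over half-log dilution ranges anchored to clinical Cmax.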

C=C(F)C(=O)N1CCN(c2nc(OCC3CCCN3C)nc3c2CCN(c2cccc4cccc(Cl)c24)C3)CC1CC#N (centres undefined) + Cc1c(S(C)(=O)=O)c(-c2cc(F)cc(N3CCN(c4ccc(NS(=O)(=O)c5ccc(NC(CCN6CCC(C(=O)OCCCP(=O)(O)O)CC6)CSc6ccccc6)c(S(=O)(=O)C(F)(F)F)c5)cc4)CC3)c2)c(-c2ccc(Cl)cc2)n1C(C)C showed an IC50 (second compound 0.0316 µM) of 4950 nM, an IC50 (second compound 0.1 µM) of 3360 nM and an IC50 (second compound 0.316 µM) of 1740 nM. For the same compound, the IC50 (second compound 1 µM) was 1730 nM, the IC50 (second compound 3.16 µM) was 1670 nM and the IC50 (second compound 10 µM) was 1590 nM. It also gave a viability, T/C (second compound 0.0316 µM, first compound 0.0316 µM) of 97.2%, a viability, T/C (second compound 0.0316 µM, first compound 0.1 µM) of 87.6% and a viability, T/C (second compound 0.0316 µM, first compound 0.316 µM) of 97.8%. The viability, T/C (second compound 0.0316 µM, first compound 1 µM) was 101%, the viability, T/C (second compound 0.0316 µM, first compound 3.16 µM) was 81.6% and the viability, T/C (second compound 0.0316 µM, first compound 10 µM) was 0.62%. It also gave a viability, T/C (second compound 0.1 µM, first compound 0.0316 µM) of 92.7%, a viability, T/C (second compound 0.1 µM, first compound 0.1 µM) of 96.7% and a viability, T/C (second compound 0.1 µM, first compound 0.316 µM) of 96.3%. The viability, T/C (second compound 0.1 µM, first compound 1 µM) was 98.3%, the viability, T/C (second compound 0.1 µM, first compound 3.16 µM) was 52.8% and the viability, T/C (second compound 0.1 µM, first compound 10 µM) was 0.77%. It also gave a viability, T/C (second compound 0.316 µM, first compound 0.0316 µM) of 98.8%, a viability, T/C (second compound 0.316 µM, first compound 0.1 µM) of 97% and a viability, T/C (second compound 0.316 µM, first compound 0.316 µM) of 97.3%. It also gave a viability, T/C (second compound 0.316 µM, first compound 1 µM) of 95.1%, a viability, T/C (second compound 0.316 µM, first compound 3.16 µM) of 1.32% and a viability, T/C (second compound 0.316 µM, first compound 10 µM) of 0.42%. The viability, T/C (second compound 1 µM, first compound 0.0316 µM) was 89.6%, the viability, T/C (second compound 1 µM, first compound 0.1 µM) was 89.7% and the viability, T/C (second compound 1 µM, first compound 0.316 µM) was 88.4%. The viability, T/C (second compound 1 µM, first compound 1 µM) was 109%, the viability, T/C (second compound 1 µM, first compound 3.16 µM) was 0.8% and the viability, T/C (second compound 1 µM, first compound 10 µM) was 1.26%. It also gave a viability, T/C (second compound 3.16 µM, first compound 0.0316 µM) of 92.9%, a viability, T/C (second compound 3.16 µM, first compound 0.1 µM) of 78.6% and a viability, T/C (second compound 3.16 µM, first compound 0.316 µM) of 87.8%. It also gave a viability, T/C (second compound 3.16 µM, first compound 1 µM) of 97.6%, a viability, T/C (second compound 3.16 µM, first compound 3.16 µM) of 0.94% and a viability, T/C (second compound 3.16 µM, first compound 10 µM) of 1.06%. It also gave a viability, T/C (second compound 10 µM, first compound 0.0316 µM) of 89.5%, a viability, T/C (second compound 10 µM, first compound 0.1 µM) of 78.9% and a viability, T/C (second compound 10 µM, first compound 0.316 µM) of 71.5%. The viability, T/C (second compound 10 µM, first compound 1 µM) was 91.6%, the viability, T/C (second compound 10 µM, first compound 3.16 µM) was 0.9% and the viability, T/C (second compound 10 µM, first compound 10 µM) was 0.74%.
In the case of CCN1C(C(=O)NC23CCC(C(=O)O)(CC2)CC3)C(c2cccc(Cl)c2F)C2(C(=O)Nc3cc(Cl)ccc32)C12CCCCC2 (centres undefined) + Cc1c(S(C)(=O)=O)c(-c2cc(F)cc(N3CCN(c4ccc(NS(=O)(=O)c5ccc(NC(CCN6CCC(C(=O)OCCCP(=O)(O)O)CC6)CSc6ccccc6)c(S(=O)(=O)C(F)(F)F)c5)cc4)CC3)c2)c(-c2ccc(Cl)cc2)n1C(C)C, the IC50 (second compound 0.0316 µM) is reported as 131 nM, the IC50 (second compound 0.1 µM) is reported as 127 nM and the IC50 (second compound 0.316 µM) is reported as 90.6 nM. The IC50 (second compound 1 µM) was 64.8 nM, the IC50 (second compound 3.16 µM) was 44.3 nM and the IC50 (second compound 10 µM) was 35.7 nM. It also gave a viability, T/C (second compound 0.0316 µM, first compound 0.00949 µM) of 97.6%, a viability, T/C (second compound 0.0316 µM, first compound 0.03 µM) of 88.5% and a viability, T/C (second compound 0.0316 µM, first compound 0.0949 µM) of 65%. For the same compound, the viability, T/C (second compound 0.0316 µM, first compound 0.3 µM) was 13.6%, the viability, T/C (second compound 0.0316 µM, first compound 0.949 µM) was 2.07% and the viability, T/C (second compound 0.0316 µM, first compound 3 µM) was 0.87%. The viability, T/C (second compound 0.1 µM, first compound 0.00949 µM) was 91.7%, the viability, T/C (second compound 0.1 µM, first compound 0.03 µM) was 80.9% and the viability, T/C (second compound 0.1 µM, first compound 0.0949 µM) was 64.2%. It also gave a viability, T/C (second compound 0.1 µM, first compound 0.3 µM) of 10.4%, a viability, T/C (second compound 0.1 µM, first compound 0.949 µM) of 1.25% and a viability, T/C (second compound 0.1 µM, first compound 3 µM) of 0.54%. It also gave a viability, T/C (second compound 0.316 µM, first compound 0.00949 µM) of 86.6%, a viability, T/C (second compound 0.316 µM, first compound 0.03 µM) of 78.7% and a viability, T/C (second compound 0.316 µM, first compound 0.0949 µM) of 49.5%. For the same compound, the viability, T/C (second compound 0.316 µM, first compound 0.3 µM) was 4.49%, the viability, T/C (second compound 0.316 µM, first compound 0.949 µM) was 0.85% and the viability, T/C (second compound 0.316 µM, first compound 3 µM) was 0.62%. It also gave a viability, T/C (second compound 1 µM, first compound 0.00949 µM) of 87.4%, a viability, T/C (second compound 1 µM, first compound 0.03 µM) of 77.6% and a viability, T/C (second compound 1 µM, first compound 0.0949 µM) of 36.4%. It also gave a viability, T/C (second compound 1 µM, first compound 0.3 µM) of 4.69%, a viability, T/C (second compound 1 µM, first compound 0.949 µM) of 0.8% and a viability, T/C (second compound 1 µM, first compound 3 µM) of 0.39%. The viability, T/C (second compound 3.16 µM, first compound 0.00949 µM) was 77.5%, the viability, T/C (second compound 3.16 µM, first compound 0.03 µM) was 63.4% and the viability, T/C (second compound 3.16 µM, first compound 0.0949 µM) was 23.8%. For the same compound, the viability, T/C (second compound 3.16 µM, first compound 0.3 µM) was 2.4%, the viability, T/C (second compound 3.16 µM, first compound 0.949 µM) was 0.61% and the viability, T/C (second compound 3.16 µM, first compound 3 µM) was 0.43%. The viability, T/C (second compound 10 µM, first compound 0.00949 µM) was 75.9%, the viability, T/C (second compound 10 µM, first compound 0.03 µM) was 56.7% and the viability, T/C (second compound 10 µM, first compound 0.0949 µM) was 12.4%. The viability, T/C (second compound 10 µM, first compound 0.3 µM) was 2.09%, the viability, T/C (second compound 10 µM, first compound 0.949 µM) was 0.69% and the viability, T/C (second compound 10 µM, first compound 3 µM) was 0.46%.

Reference: PubChem BioAssay AID1963432 (Molecular Pharmacology Branch, DTP, NCI, 2024)
